The values below come from patent US11566007B2, “Ras inhibitors” (Revolution Medicines, Inc., priority 2019, dated 2023).

Like-named read-outs stand apart in the source and are kept apart here.

The target of test [1] is K-Ras G12C (Homo sapiens (Human), UniProt P01116+P62937, G12C). The test is described as follows: Ras-Raf (BRAF RBD) disruption / FRET / MOA assay, KRAS G12C. Type of test: biochemical. The settings on record: KRAS G12C; Ras-Raf disruption/FRET/MOA assay; read-out: IC50* KRAS G12C FRET data. The essentials:
(§1)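 Compounds, top final concentration 30 μM in 10-point 3-fold series, incubated 3 hours at 25° C with nucleotide-loaded Ras, cyclophilin A and BRAF RBD.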

Test [2] addresses KRAS Q61H (Homo sapiens (Human), UniProt P01116+P62937, Q61H). The test is described as follows: Ras-Raf (BRAF RBD) disruption / FRET / MOA assay, KRAS Q61H. Type of test: biochemical. The settings on record: Ras-Raf disruption/FRET/MOA assay; class symbols; read-out: KRAS Q61H FRET data IC50. In outline:
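TR-FRET disruption of nucleotide-loaded Ras binding to BRAF RBD via compound-driven ternary complex with cyclophilin A. Compound as 10-point 3-fold series from 30 μM final, 3 h at 25° C, then anti-His Eu-W1024 (10 nM) and anti-GST allophycocyanin (50 nM) for 1.5 h. IC50 from decreased FRET ratio versus DMSO.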

For test [3], the target named is NRAS G12C (Homo sapiens (Human), UniProt P01111+P62937, G12C). The test is described as follows: Ras-Raf (BRAF RBD) disruption / FRET / MOA assay, NRAS G12C. Type of test: biochemical. The settings on record: read-out: IC50* NRAS G12C FRET data. The essentials: as §1
Test [4] relates to NCI-H358 cells (K-Ras G12C). Nature of the test: Potency assay: pERK in NCI-H358 cells. Type of test: cell-based, human. The settings on record: Homo sapiens. In outline:
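pERK decrease read by AlphaLISA SureFire p-ERK1/2 or In-Cell Western after 4 h compound exposure at 37 °C, 5% CO2.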

[5] abbreviates: NCI-H358, H358 KRAS G12C, read-out: pERK EC50.

Chain of K-Ras G12C (P01116-2 other isoform, or with tags, fused parts or gaps G12C): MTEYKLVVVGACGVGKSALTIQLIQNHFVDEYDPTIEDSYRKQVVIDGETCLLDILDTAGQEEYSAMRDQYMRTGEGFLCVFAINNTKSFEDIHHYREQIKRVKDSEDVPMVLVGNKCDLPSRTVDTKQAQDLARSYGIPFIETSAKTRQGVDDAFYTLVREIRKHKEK
Chain of K-Ras G12C (P62937 whole entry): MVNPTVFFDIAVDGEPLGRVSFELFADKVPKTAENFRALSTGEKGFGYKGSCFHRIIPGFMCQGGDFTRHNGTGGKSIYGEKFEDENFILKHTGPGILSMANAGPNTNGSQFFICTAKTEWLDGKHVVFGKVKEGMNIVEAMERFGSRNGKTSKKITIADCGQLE
Chain of NRAS G12C (P01111 whole entry G12C): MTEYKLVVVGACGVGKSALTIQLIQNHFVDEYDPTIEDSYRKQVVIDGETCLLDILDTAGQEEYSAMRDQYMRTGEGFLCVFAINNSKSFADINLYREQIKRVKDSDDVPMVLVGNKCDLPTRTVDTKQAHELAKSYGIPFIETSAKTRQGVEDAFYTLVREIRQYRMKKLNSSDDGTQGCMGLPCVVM
Chain of NRAS G12C (P62937 whole entry): as the sequence (P62937 whole entry) above
Chain of KRAS Q61H (P01116-2 other isoform, or with tags, fused parts or gaps Q61H): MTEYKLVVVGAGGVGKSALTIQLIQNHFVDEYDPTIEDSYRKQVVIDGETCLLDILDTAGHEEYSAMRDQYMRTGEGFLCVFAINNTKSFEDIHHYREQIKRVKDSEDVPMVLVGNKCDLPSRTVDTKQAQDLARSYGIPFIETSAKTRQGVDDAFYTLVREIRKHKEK
Chain of KRAS Q61H (P62937 whole entry): as the sequence (P62937 whole entry) above

The IC50 is the concentration at which inhibition is half-maximal. As a reminder, the EC50 is the midpoint of the concentration-response curve. In the case of `C=CC(=O)N1CC[C@H](C(=O)N2CCCCC[C@H]2C(=O)N[C@H]2Cc3nc(cs3)-c3ccc4c(c3)c(c(-c3cccnc3[C@H](C)OC)n4CC)CC(C)(C)COC(=O)[C@@H]3CCCN(N3)C2=O)C1` (atropisomer, axis not shown) [Example A495], the figures for the IC50 in test [1], in test [2] and in test [3] were 0.1 to 1 µM, 1 to 10 µM and 0.1 to 1 µM, respectively. For the same molecule, the EC50 in test [4] (setting [5]) is less than 5 µM.

In the case of `C=CC(=O)N(C)CCN1CCN(C(=O)N(C)[C@H](C(=O)N[C@H]2Cc3cccc(c3)-c3ccc4c(c3)c(c(-c3cccnc3[C@H](C)OC)n4CC)CC(C)(C)COC(=O)[C@@H]3CCCN(N3)C2=O)C(C)C)CC1` (atropisomer, axis not shown) [Example A539], the IC50 in test [1], in test [2] and in test [3] was 0.1 to 1 µM throughout. Moreover, the EC50 in test [4] (setting [5]) is less than 5 µM.

`C=CC(=O)N1CCOC2(CCN(C(=O)N(C)[C@H](C(=O)N[C@H]3Cc4cc(C(F)F)cc(n4)-c4ccc5c(c4)c(c(-c4cccnc4[C@H](C)OC)n5CC(F)(F)F)CC(C)(C)COC(=O)[C@@H]4CCCN(N4)C3=O)C(C)C)CC2)C1` (atropisomer, axis not shown) [Example A541]: the half-maximal inhibitory concentration (IC50) in test [1], in test [2] and in test [3] was 0.1 to 1 µM throughout. In addition, the EC50 in test [4] (setting [5]) is less than 5 µM.

Regarding `C=CC(=O)N1CCC[C@]12CCN(C(=O)N(C)[C@H](C(=O)N[C@H]1Cc3nc(cs3)-c3ccc4c(c3)c(c(-c3cccnc3[C@H](C)OC)n4CC)CC(C)(C)COC(=O)[C@@H]3CCCN(N3)C1=O)C(C)C)C2` (atropisomer, axis not shown) [Example A548], the IC50 in test [1], in test [2] and in test [3] was 0.1 to 1 µM each time. The EC50 in test [4] (setting [5]) was less than 5 µM.

As to `C=CC(=O)N(C)CCN1CCN(C(=O)N(C)[C@H](C(=O)N[C@H]2Cc3cccc(c3)-c3ccc4c(c3)c(c(-c3cccnc3[C@H](C)OC)n4CC)CC(C)(C)COC(=O)[C@@H]3CCCN(N3)C2=O)C(C)C)C[C@H]1C` (atropisomer, axis not shown) [Example A553], the concentration for half-maximal inhibition (IC50) in test [1], in test [2] and in test [3] was 0.1 to 1 µM in each case. The EC50 in test [4] (setting [5]) is less than 5 µM.

Regarding `C=CC(=O)N1CCC2(CCN(C(=O)N(C)[C@H](C(=O)N[C@H]3Cc4cccc(c4)-c4ccc5c(c4)c(c(-c4cccnc4[C@H](C)OC)n5CC)CC(C)(C)COC(=O)[C@@H]4CCCN(N4)C3=O)C(C)C)CC2)C1` (atropisomer, axis not shown) [Example A554], the IC50 in test [1], in test [2] and in test [3] was 0.1 to 1 µM throughout. Also, the EC50 in test [4] (setting [5]) was less than 5 µM.

As to `C=CC(=O)N1CC[C@]2(C1)OCN([C@H](C(=O)N[C@H]1Cc3cc(cc(C(F)F)c3)-c3ccc4c(c3)c(c(-c3cccnc3[C@H](C)OC)n4CC)CC(C)(C)COC(=O)[C@@H]3CCCN(N3)C1=O)C(C)C)C2=O` (atropisomer, axis not shown) [Example A557], the IC50 in test [1] was 0.1 to 1 µM; in test [2], 0.01 to 0.1 µM; in test [3] it was 0.1 to 1 µM. Also, the EC50 in test [4] (setting [5]) was less than 5 µM.

As for `CCn1c(-c2cccnc2[C@H](C)OC)c2c3cc(ccc31)-c1cccc(c1)C[C@H](NC(=O)[C@H](C(C)C)N1CC[C@]3(CCN(C(=O)C#C[C@H]4COCCN4C4COC4)C3)C1=O)C(=O)N1CCC[C@H](N1)C(=O)OCC(C)(C)C2` (atropisomer, axis not shown) [Example A568], the half-inhibitory concentration (IC50) in test [1] lay in the range of 0.01 to 0.1 µM; in test [2], 1 to 10 µM; in test [3] it was 0.1 to 1 µM. Also, the EC50 in test [4] (setting [5]) is less than 5 µM.

Take `CCn1c(-c2cccnc2[C@H](C)OC)c2c3cc(ccc31)-c1cccc(c1)C[C@H](NC(=O)[C@H](C(C)C)N1CC[C@]3(CCN(C(=O)C#C[C@@H]4COCCN4C)C3)C1=O)C(=O)N1CCC[C@H](N1)C(=O)OCC(C)(C)C2` (atropisomer, axis not shown) [Example A569]: the IC50 in test [1] is 0.01 to 0.1 µM; in test [2], 1 to 10 µM; in test [3], 0.01 to 0.1 µM. Further, the EC50 in test [4] (NCI-H358, read-out: pERK EC50) is less than 5 µM.

`C=CC(=O)N(C)CCN1CCN(C(=O)N(C)[C@H](C(=O)N[C@H]2Cc3cccc(c3)-c3ccc4c(c3)c(c(-c3cccnc3[C@H](C)OC)n4CC)CC(C)(C)COC(=O)[C@@H]3CCCN(N3)C2=O)C(C)C)C[C@@H]1C` (atropisomer, axis not shown) [Example A570]: the half-inhibitory concentration (IC50) in test [1], in test [2] and in test [3] was 0.1 to 1 µM each time. In test [4] (setting [5]), the EC50 is less than 5 µM.

For `C=CC(=O)N1CCO[C@H]2CN(C(=O)N(C)[C@H](C(=O)N[C@H]3Cc4nc(n(C)n4)-c4ccc5c(c4)c(c(-c4cccnc4[C@H](C)OC)n5CC(F)(F)F)CC(C)(C)COC(=O)[C@@H]4CCCN(N4)C3=O)C(C)C)C[C@H]21` (atropisomer, axis not shown) [Example A575], the IC50 in test [1] fell in the range of 0.01 to 0.1 µM; in test [2], 0.1 to 1 µM; in test [3] it was 0.01 to 0.1 µM. The EC50 in test [4] (setting [5]) is less than 5 µM.

In the case of `C=CC(=O)N1CCO[C@]2(CCN(C(=O)N(C)[C@H](C(=O)N[C@H]3Cc4nc(cs4)-c4ccc5c(c4)c(c(-c4cccnc4[C@H](C)OC)n5CC(F)(F)F)CC(C)(C)COC(=O)[C@@H]4CCCN(N4)C3=O)C(C)C)C2)C1` (atropisomer, axis not shown) [Example A593], the IC50 in test [1], in test [2] and in test [3] was 0.1 to 1 µM each time. Also, the EC50 in test [4] (setting [5]) is less than 5 µM.

As to `CCn1c(-c2cccnc2[C@H](C)OC)c2c3cc(ccc31)-c1csc(n1)C[C@H](NC(=O)[C@H](C(C)C)N(C)C(=O)N1CCC13CN(C(=O)/C=C/CN(C)C)C3)C(=O)N1CCC[C@H](N1)C(=O)OCC(C)(C)C2` (atropisomer, axis not shown) [Example A598], the half-maximal inhibitory concentration (IC50) in test [1] is 0.01 to 0.1 µM; in test [2], less than 0.01 µM; in test [3], 0.01 to 0.1 µM. In addition, the EC50 in test [4] (setting [5]) was less than 5 µM.

Turning to `C=CC(=O)N1CCOC2(CCN(C(=O)N(C)[C@H](C(=O)N[C@H]3Cc4cccc(n4)-c4ccc5c(c4)c(c(-c4cccnc4[C@H](C)OC)n5CC(F)(F)F)CC(C)(C)COC(=O)[C@@H]4CCCN(N4)C3=O)C(C)C)CC2)C1` (atropisomer, axis not shown) [Example A607, 4-acryloyl-N-((2S)-1-(((6^3S,4S)-1^2-(2-((S)-1-methoxyethyl)pyridin-3-yl)-10,10-dimethyl-5,7-dioxo-1^1-(2,2,2-trifluoroethyl)-6^1,6^2,6^3,6^4,6^5,6^6-hexahydro-1^1H-8-oxa-1(5,3)-indola-6(1,3)-pyridazina-2(2,6)-pyridinacycloundecaphane-4-yl)amino)-3-methyl-1-oxobutan-2-yl)-N-methyl-1-oxa-4,9-diazaspiro[5.5]undecane-9-carboxamide], the IC50 in test [1], in test [2] and in test [3] was 0.1 to 1 µM in each case. Besides, in test [4] (setting [5]), the EC50 was less than 5 µM.

Turning to `CCn1c(-c2cccnc2[C@H](C)OC)c2c3cc(ccc31)-c1csc(n1)C[C@H](NC(=O)[C@H](C(C)C)N(C)C(=O)N1CCC13CN(C(=O)/C=C/CN1CCOCC1)C3)C(=O)N1CCC[C@H](N1)C(=O)OCC(C)(C)C2` (atropisomer, axis not shown) [Example A611], the half-inhibitory concentration (IC50) in test [1] lay within 0.1 to 1 µM; in test [2], 0.01 to 0.1 µM; in test [3] it was 0.1 to 1 µM. In addition, the concentration giving a half-maximal response (EC50) in test [4] (setting [5]) is less than 5 µM.

On to `CCn1c(-c2cccnc2[C@H](C)OC)c2c3cc(ccc31)-c1cccc(c1)C[C@H](NC(=O)[C@@H](COC1CN(C(=O)C#CC(C)(C)N(C)C3CC3)C1)C(C)C)C(=O)N1CCC[C@H](N1)C(=O)OCC(C)(C)C2` (atropisomer, axis not shown) [Example A613], for which the IC50 in test [1] is 0.1 to 1 µM; in test [2] it was greater than 10 µM; in test [3], 1 to 10 µM. Also, the EC50 in test [4] (setting [5]) was less than 5 µM.

Regarding `CCn1c(-c2cccnc2[C@H](C)OC)c2c3cc(ccc31)N1CCC[C@@H](C[C@H](NC(=O)[C@H](C(C)C)N(C)C(=O)[C@H]3CCN(C(=O)C#CC(C)(C)N4CCC4)C3)C(=O)N3CCC[C@H](N3)C(=O)OCC(C)(C)C2)C1` (atropisomer, axis not shown) [Example A617], the IC50 is 0.01 to 0.1 µM in test [1], greater than 10 µM in test [2] and 0.01 to 0.1 µM in test [3]. Also, the EC50 in test [4] (setting [5]) is less than 5 µM.

Take `C=CC(=O)N1CCC[C@H]2CN(C(=O)N(C)[C@H](C(=O)N[C@H]3Cc4nc(cs4)-c4ccc5c(c4)c(c(-c4cccnc4[C@H](C)OC)n5CC)CC(C)(C)COC(=O)[C@@H]4CCCN(N4)C3=O)C(C)C)C[C@H]21` (atropisomer, axis not shown) [Example A618]: the IC50 in test [1], in test [2] and in test [3] was 0.1 to 1 µM in each case. Also, the half-maximal effective concentration (EC50) in test [4] (setting [5]) was less than 5 µM.

With `CCn1c(-c2cccnc2[C@H](C)OC)c2c3cc(ccc31)-c1csc(n1)C[C@H](NC(=O)[C@H](C(C)C)N(C)C(=O)N1C[C@@H]3CN(C(=O)C#CC(C)(C)N(C)C)CC[C@@H]31)C(=O)N1CCC[C@H](N1)C(=O)OCC(C)(C)C2` (atropisomer, axis not shown) [Example A625], the IC50 in test [1], in test [2] and in test [3] was 0.1 to 1 µM each time. In test [4] (setting [5]), the EC50 was less than 5 µM.
